Data reported in patent publication US8735414B2 (priority 2009, dated 2014).

Columns and labels:
[1] = system: bicistronic HCV replicon (replicon RNA, GenBank Accession No. AJ242654); assay: HCV Replicon Assay; format: cell-based; settings: Hepatitis C virus, 72 h, read-out: Replicon IC50

Structure (SMILES) | IC50 [1] | melting point
C[C@@H](NS(=O)(=O)c1cnc(-c2c(C#N)c3ccc(C4CC4)cc3n2C2CCC2)nc1)C(F)(F)F [compound 180, 2-(3-cyano-1-cyclobutyl-6-cyclopropyl-1H-indol-2-yl)-N-[(2R)-1,1,1-trifluoropropan-2-yl]pyrimidine-5-sulfonamide] | 500 to 2000 nM | 211 to 212 °C
Cc1cc2c(cc1Cl)c(C#N)c(-c1ncc(S(=O)(=O)N[C@@H](C)C(F)(F)F)cn1)n2C1CCC1 [compound 448, 2-(5-chloro-3-cyano-1-cyclobutyl-6-methyl-1H-indol-2-yl)-N-[(2S)-1,1,1-trifluoropropan-2-yl]pyrimidine-5-sulfonamide] | 500 to 2000 nM | > 300 °C
C[C@@H](NS(=O)(=O)c1ccc(-c2c(C#N)c3ccc(C4CC4)cc3n2C2CCCC2)nc1)C(F)(F)F [compound 211, 6-(3-cyano-1-cyclopentyl-6-cyclopropyl-1H-indol-2-yl)-N-[(2R)-1,1,1-trifluoropropan-2-yl]pyridine-3-sulfonamide] | < 500 nM | 178 to 181 °C
CC(C)NS(=O)(=O)c1cnc(-c2c(C#N)c3ccc(OC(F)F)cc3n2C2CCCCC2)nc1 [compound 473, 2-[3-cyano-1-cyclohexyl-6-(difluoromethoxy)-1H-indol-2-yl]-N-(propan-2-yl)pyrimidine-5-sulfonamide] | < 500 nM | 176 to 179 °C
Cc1cc2c(cc1F)c(C#N)c(-c1ccc(S(=O)(=O)N[C@@H](C)C(F)(F)F)cn1)n2-c1cc(F)ccn1 [compound 926, 6-[3-cyano-5-fluoro-1-(4-fluoropyridin-2-yl)-6-methyl-1H-indol-2-yl]-N-[(2S)-1,1,1-trifluoropropan-2-yl]pyridine-3-sulfonamide] | < 500 nM | 229 to 233 °C
CCNC(=O)c1c(-c2ccc(S(=O)(=O)N[C@@H](C)C(F)(F)F)cn2)n(C2CCCC2)c2cc(C)c(F)cc12 [compound 762, 1-cyclopentyl-N-ethyl-5-fluoro-6-methyl-2-(5-{[(2S)-1,1,1-trifluoropropan-2-yl]sulfamoyl}pyridin-2-yl)-1H-indole-3-carboxamide] | < 500 nM | 160 to 162 °C
N#Cc1c(-c2ncc(S(=O)(=O)NC(CF)CF)cn2)n(C2CCCCC2)c2cc(F)ccc12 [compound 235, 2-(3-cyano-1-cyclohexyl-6-fluoro-1H-indol-2-yl)-N-(1,3-difluoropropan-2-yl)pyrimidine-5-sulfonamide] | < 500 nM | 213 to 218 °C
Cc1cc2c(cc1F)c(C#N)c(-c1ccc(S(=O)(=O)N[C@@H](C)C(F)(F)F)cn1)n2-c1ccnc(F)c1 [compound 1013, 6-[3-cyano-5-fluoro-1-(2-fluoropyridin-4-yl)-6-methyl-1H-indol-2-yl]-N-[(2S)-1,1,1-trifluoropropan-2-yl]pyridine-3-sulfonamide] | < 500 nM | 243.4 to 246.9 °C
Cc1ccc2c(c1)c(C#N)c(-c1ncc(S(=O)(=O)N[C@@H](C)C3CC3)cn1)n2C(C)C [compound 563, 2-[3-cyano-5-methyl-1-(propan-2-yl)-1H-indol-2-yl]-N-[(1S)-1-cyclopropylethyl]pyrimidine-5-sulfonamide] | 500 to 2000 nM | 171 to 174 °C
C[C@@H](NS(=O)(=O)c1ccc(-c2c(C#N)c3ccc(C4CCC4)cc3n2C2CCCC2)nc1)C(F)(F)F [compound 343, 6-(3-cyano-6-cyclobutyl-1-cyclopentyl-1H-indol-2-yl)-N-[(2R)-1,1,1-trifluoropropan-2-yl]pyridine-3-sulfonamide] | 2000 to 5000 nM | 176 to 178 °C
Cc1ccc2c(c1)c(C#N)c(-c1ncc(S(=O)(=O)NC(CF)CF)cn1)n2C1CCC1 [compound 122, 2-(3-cyano-1-cyclobutyl-5-methyl-1H-indol-2-yl)-N-(1,3-difluoropropan-2-yl)pyrimidine-5-sulfonamide] | < 500 nM | 140 to 145 °C
Cc1ccc2c(c1)c(C#N)c(-c1ncc(S(=O)(=O)NC(CF)CF)cn1)n2C(C)C [compound 567, 2-[3-cyano-5-methyl-1-(propan-2-yl)-1H-indol-2-yl]-N-(1,3-difluoropropan-2-yl)pyrimidine-5-sulfonamide] | < 500 nM | 160 to 163 °C
Cc1cc2c(cc1F)c(C#N)c(-c1ccc(S(=O)(=O)N[C@@H](C)C(F)(F)F)cn1)n2-c1ccccn1 [compound 541, 6-[3-cyano-5-fluoro-6-methyl-1-(pyridin-2-yl)-1H-indol-2-yl]-N-[(2S)-1,1,1-trifluoropropan-2-yl]pyridine-3-sulfonamide] | < 500 nM | 160 to 164 °C
N#Cc1c(-c2ncc(S(=O)(=O)NC(CF)CF)cn2)n(CC2CC2)c2cc(OC(F)F)ccc12 [compound 136, 2-[3-cyano-1-(cyclopropylmethyl)-6-(difluoromethoxy)-1H-indol-2-yl]-N-(1,3-difluoropropan-2-yl)pyrimidine-5-sulfonamide] | < 500 nM | 207 to 209 °C
COc1ccc(-n2c(-c3ncc(S(=O)(=O)NC(CF)CF)cn3)c(C#N)c3cc(F)ccc32)cc1 [compound 337, 2-[3-cyano-5-fluoro-1-(4-methoxyphenyl)-1H-indol-2-yl]-N-(1,3-difluoropropan-2-yl)pyrimidine-5-sulfonamide] | 500 to 2000 nM | 209 to 211 °C
Cc1cc2c(cc1F)c(C(N)=O)c(-c1ccc(S(N)(=O)=O)cn1)n2C1CCCCC1 [compound 715, 1-cyclohexyl-5-fluoro-6-methyl-2-(5-sulfamoylpyridin-2-yl)-1H-indole-3-carboxamide] | < 500 nM | 254 to 257 °C
Cc1cc2c(C#N)c(-c3ccc(S(=O)(=O)N[C@@H](C)C(F)(F)F)cn3)n(-c3ncc(F)cn3)c2cc1F [compound 949, 6-[3-cyano-6-fluoro-1-(5-fluoropyrimidin-2-yl)-5-methyl-1H-indol-2-yl]-N-[(2S)-1,1,1-trifluoropropan-2-yl]pyridine-3-sulfonamide] | < 500 nM | 226 to 231 °C
Cc1c(F)cc2c(C#N)c(-c3ccc(S(=O)(=O)N[C@H](C)C(F)(F)F)cn3)n(C3CCC3)c2c1F [compound 666, 6-(3-cyano-1-cyclobutyl-5,7-difluoro-6-methyl-1H-indol-2-yl)-N-[(2R)-1,1,1-trifluoropropan-2-yl]pyridine-3-sulfonamide] | < 500 nM | 185 to 190 °C
CC(C)n1c(-c2ncc(S(=O)(=O)N[C@@H](C)C(F)(F)F)cn2)c(C#N)c2ccc(Cl)cc21 [compound 418, 2-[6-chloro-3-cyano-1-(propan-2-yl)-1H-indol-2-yl]-N-[(2S)-1,1,1-trifluoropropan-2-yl]pyrimidine-5-sulfonamide] | 500 to 2000 nM | 241 to 248 °C
Cc1cc2c(cc1F)c(C#N)c(-c1ccc(S(=O)(=O)N[C@@H](C)C(F)(F)F)cn1)n2-c1occc1C#N [compound 1072, 6-[3-cyano-1-(3-cyanofuran-2-yl)-5-fluoro-6-methyl-1H-indol-2-yl]-N-[(2S)-1,1,1-trifluoropropan-2-yl]pyridine-3-sulfonamide] | 500 to 2000 nM | 238 to 243.6 °C
